The values that follow are results of earlier work, collected in US4127519A, “Octadecapeptides, intermediates therefor, and compositions and methods employing said octadecapeptides” (priority 1977, dated 1978).

Data set [1] relates to brain opiate receptor sites.
For data set [2] the following is noted: injected directly into the brain of the rat.

In the case of “H-Tyr-Gly-Gly-Phe-Met-OH [methionine enkephalin]”, the “binding to partially purified brain opiate receptor sites” value in data set [1] is recorded as “binds stereo-specifically”. For the same substance, the analgesic activity result in data set [2] is reported as “weak analgesic agent of short duration”.
